Data as given in patent EP2949653A1, “ISOXAZOLE DERIVATIVES AS LEUKOTRIENE BIOSYNTHESIS INHIBITORS” (Banoglu, Erden, priority 2014, dated 2015).
pIC50: −log10 of the molar value.

How the values were obtained:
[1] = biological target: T1, 5-LO (Homo sapiens, UniProt P09917); assay: 5-LO mediated product formation in neutrophil homogenates (reducing conditions); format: biochemical; design: endogenous in cells; host or cells: neutrophil homogenates; conditions: with or without GSH (1 mM), 20 µM AA (Figure 6)
T1 sequence (P09917 1-674): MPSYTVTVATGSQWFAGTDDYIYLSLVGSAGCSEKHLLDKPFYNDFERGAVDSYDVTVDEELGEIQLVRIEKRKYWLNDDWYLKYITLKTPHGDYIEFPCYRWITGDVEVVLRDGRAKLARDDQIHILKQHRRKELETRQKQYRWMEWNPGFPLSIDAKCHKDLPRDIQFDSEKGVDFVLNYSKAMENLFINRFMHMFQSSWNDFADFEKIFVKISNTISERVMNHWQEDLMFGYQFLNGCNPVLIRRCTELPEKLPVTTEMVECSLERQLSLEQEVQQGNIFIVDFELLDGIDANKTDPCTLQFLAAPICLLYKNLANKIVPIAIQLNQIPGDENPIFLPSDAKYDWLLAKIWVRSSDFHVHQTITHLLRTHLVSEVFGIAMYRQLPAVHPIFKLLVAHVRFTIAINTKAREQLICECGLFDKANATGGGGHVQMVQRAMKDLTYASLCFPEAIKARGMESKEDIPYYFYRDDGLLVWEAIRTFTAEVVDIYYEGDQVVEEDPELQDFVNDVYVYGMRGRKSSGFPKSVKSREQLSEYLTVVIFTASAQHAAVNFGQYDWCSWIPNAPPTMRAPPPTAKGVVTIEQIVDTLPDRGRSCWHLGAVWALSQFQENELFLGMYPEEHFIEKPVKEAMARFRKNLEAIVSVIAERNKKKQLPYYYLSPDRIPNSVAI
Method: Cell based and cell-free assays carried out in biological studies, immunofluorescence microscopy analysis and zymosan-induced peritonitis in mice are performed as described hereinabove (Pegola, C. and et al., British J. Pharmacology, 2014, D01:10.1111/bph.12625). In the cell based assays (intact neutrophils or monocytes), 5-LO mediated product formation is started, after pre-incubation with test compounds (or control DMSO) for 15 min. at 37 °C, with addition of Ca-ionophore A23187 (2.5 µM) to the fresh 5 x 10^6 neutrophils or monocytes suspended in 1 ml of PGC buffer (phosphate buffered saline (PBS) solution containing 1 mg ml^-1 glucose and 1mM CaCl2, pH 7.4). After the incubation for 10 min. at 37 °C, the reaction is ended with addition of 1 ml of methanol, and 30 µL 1 N HCl, 200 ng prostaglandin B1 and 500 µL PBS are added to the mixture. […] Resulting 5-LO mediated products are extracted and analysed by the known method of high pressure liquid chromatography (HPLC) (Pergola, C. Proc Natl. Acad. Sci. U.S.A. 2008, 105, 19881). 5-LO mediated product formation (LTB4 and all trans isomers, and 5 (S)-hydro(pero)xy-6-trans-8, 11, 14-cis-eicosatetraenoic acid, 5-H(p)ETE) is expressed as ng per 10^6 cell. Cysteinyl-LTs have not been analyzed because that the amount of C4, D4 and E4 and LTB4 oxidation products are below the detection limit. […]

[2] = biological target: T2, 15-LO (Homo sapiens, UniProt P16050); assay: 15-LO inhibition in A23187-stimulated neutrophils; format: cell-based; conditions: up to 10 µM in A23187-stimulated neutrophils
T2 construct: 12-LO or 15-LO, up to 10 µM in A23187-stimulated neutrophils; endogenous in cells; host or cells: A23187-stimulated neutrophils
T2 sequence (P16050 1-662): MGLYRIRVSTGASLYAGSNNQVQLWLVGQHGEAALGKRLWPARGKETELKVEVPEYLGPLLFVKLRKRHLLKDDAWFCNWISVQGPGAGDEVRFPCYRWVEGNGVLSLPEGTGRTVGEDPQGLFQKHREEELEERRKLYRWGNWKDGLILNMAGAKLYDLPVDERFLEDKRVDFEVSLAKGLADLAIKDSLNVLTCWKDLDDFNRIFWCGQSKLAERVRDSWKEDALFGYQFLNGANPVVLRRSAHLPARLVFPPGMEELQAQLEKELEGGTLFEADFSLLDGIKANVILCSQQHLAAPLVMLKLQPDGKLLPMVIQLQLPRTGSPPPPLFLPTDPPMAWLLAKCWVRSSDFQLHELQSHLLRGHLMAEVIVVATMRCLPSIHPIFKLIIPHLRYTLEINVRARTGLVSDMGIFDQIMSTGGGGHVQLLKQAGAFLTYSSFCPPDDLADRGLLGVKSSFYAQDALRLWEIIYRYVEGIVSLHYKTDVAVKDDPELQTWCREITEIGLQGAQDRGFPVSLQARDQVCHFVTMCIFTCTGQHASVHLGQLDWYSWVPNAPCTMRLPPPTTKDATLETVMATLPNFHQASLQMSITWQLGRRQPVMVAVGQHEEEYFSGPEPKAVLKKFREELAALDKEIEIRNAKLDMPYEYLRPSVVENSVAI

[3] = biological target: T3, microsomal prostaglandin E synthase-1 (mPGES-1) (Homo sapiens, UniProt O14684); assay: mPGES-1 inhibition; format: biochemical
T3 sequence (O14684 1-152): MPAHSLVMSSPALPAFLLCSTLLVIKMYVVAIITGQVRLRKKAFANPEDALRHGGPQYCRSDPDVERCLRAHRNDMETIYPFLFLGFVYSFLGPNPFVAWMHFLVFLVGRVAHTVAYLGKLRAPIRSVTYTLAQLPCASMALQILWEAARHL
Method: Compound 9hj inhibited microsomal prostaglandin E synthase-1 (mPGES-1) with IC50 of 5 µM.

[4] = test system: translocation of 5-LO; assay: 5-LO subcellular localization by immunofluorescence microscopy; format: cell-based; conditions: 0.1 and 1 µM; Ca-ionophore A23187 (2.5 µM; 3 min) (Figure 8)
[5] = test system: 5-LO mediated product synthesis; assay: 5-LO mediated product synthesis in neutrophils stimulated with LPS plus fMLP; format: cell-based; conditions: Homo sapiens, Neutrophil

pIC50 [1]: 6.00 | inhibition of 15-LO [2]: did not inhibit | pIC50 [3]: 5.30 | pIC50 [5]: 8.00
SMILES: O=C(O)c1noc(-c2ccc(OCc3ccc4ccccc4n3)cc2)c1-c1ccc(Cl)cc1 [Compound 9hj, 4-(4-Chlorophenyl)-5-(4-(quinolin-2-ylmethoxy)phenyl)isoxazole-3-carboxylic acid]
translocation of 5-LO from soluble subcellular compartment to nuclear membrane [4]: inhibited translocation
